{"source": "paper PMC4860631", "about": "“Pharmacokinetics and tolerability of NSC23925b, a novel P-glycoprotein inhibitor: preclinical study in mice and rats” (Scientific Reports, 2016)", "key": {"SD rats": {"tested_on": "SD rats", "assay": "Determination of maximum tolerated dose (MTD) in rats", "assay_type": "in vivo", "settings": "SD rats, 5 exposed", "procedure": "(§1) The MTD determination assay was composed of sighting study and main study. For the sighting study of the determination maximum tolerable dose (MTD) of NSC23925b, one of each animal (one female rat, one male rat, one female mouse, and one male mouse) was used at each I.V. and I.P. injection dose level. The starting dose was selected from the fixed dose levels (5, 50, 500, 2000 mg/kg) as a dose expected to produce evident toxicity. The first animal was dosed and observed. Time of appearance, degree, and lasting/recovery time of signs were recorded in details. Afterwards, animals were observed twice on the dosing day and then changed to daily observation. The observation lasted at least 14 days. If the first animal died or appeared impaired, the second animal received a middle dose of the two doses and vice versa. The sighting study was completed when a decision on the starting dose for the main study was made.\n(§2) During the main study, a total of five animals of one sex were used for each dose level investigated. The five animals were made up of one animal from the sighting study dosed at the selected dose level together with an additional four animals. Each group received one of the fixed doses by I.V. and I.P. based on the sighting study. If the first animal died or appeared impaired, the second animal received a middle dose of the two doses and vice versa.\n(§3) Animals were fasted overnight prior to dosing. Following the period of fasting, the animals were weighed and the dose was calculated according to the body weight. After the animals were administrated a dose volume of 10 mL/kg, food was withheld for another 3–4 hours. Individual weights of animals were determined shortly before the test substance was administered and twice weekly thereafter. Weight changes were calculated and recorded. Animals injected with saline were the control group for the weight alteration."}, "[1]": {"assay": "Determination of maximum tolerated dose (MTD) in rats", "assay_type": "in vivo", "settings": "Sprague-Dawley, in vivo, read-out: tolerated dosage (MTD study)", "procedure": "as §1, §2, §3"}, "CYP2B6": {"molecular_target": "T1, CYP2B6 (Homo sapiens, UniProt P20813)", "T1 construct": "from tissue; host or cells: human liver microsomes", "T1 sequence (P20813 1-491)": "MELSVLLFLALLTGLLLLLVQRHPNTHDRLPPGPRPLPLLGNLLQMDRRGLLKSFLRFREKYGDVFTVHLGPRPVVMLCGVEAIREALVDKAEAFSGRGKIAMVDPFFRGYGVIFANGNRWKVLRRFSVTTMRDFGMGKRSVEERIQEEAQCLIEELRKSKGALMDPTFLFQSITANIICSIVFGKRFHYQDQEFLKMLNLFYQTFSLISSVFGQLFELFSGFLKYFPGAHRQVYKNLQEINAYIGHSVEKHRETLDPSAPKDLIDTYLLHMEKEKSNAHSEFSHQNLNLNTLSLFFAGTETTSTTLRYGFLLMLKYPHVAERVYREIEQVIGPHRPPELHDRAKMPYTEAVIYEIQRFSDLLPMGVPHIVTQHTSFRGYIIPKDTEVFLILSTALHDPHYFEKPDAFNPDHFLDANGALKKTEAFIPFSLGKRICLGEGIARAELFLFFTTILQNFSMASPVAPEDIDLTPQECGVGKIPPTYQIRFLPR", "assay": "HLM-LC-MS CYP450 inhibition assay, CYP2B6", "assay_type": "in vitro ADME", "procedure": "Compounds were tested in triplicate."}, "CYP2D6": {"molecular_target": "CYP2D6 (Homo sapiens, UniProt P10635)", "sequence (P10635 whole entry)": "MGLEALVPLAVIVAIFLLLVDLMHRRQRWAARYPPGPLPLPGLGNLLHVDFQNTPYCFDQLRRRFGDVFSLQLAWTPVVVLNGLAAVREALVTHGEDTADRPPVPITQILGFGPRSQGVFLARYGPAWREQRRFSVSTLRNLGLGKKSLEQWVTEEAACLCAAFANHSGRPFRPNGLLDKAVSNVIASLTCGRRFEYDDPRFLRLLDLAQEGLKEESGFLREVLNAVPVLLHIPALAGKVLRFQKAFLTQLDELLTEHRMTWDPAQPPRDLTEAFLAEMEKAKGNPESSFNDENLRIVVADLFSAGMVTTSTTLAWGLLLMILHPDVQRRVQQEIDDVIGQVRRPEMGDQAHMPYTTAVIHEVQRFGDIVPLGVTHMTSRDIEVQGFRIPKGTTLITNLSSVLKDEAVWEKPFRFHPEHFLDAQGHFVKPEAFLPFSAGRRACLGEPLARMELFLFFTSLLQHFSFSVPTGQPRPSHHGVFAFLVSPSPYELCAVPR", "assay": "HLM-LC-MS CYP450 inhibition assay, CYP2D6", "experimental": "(§4) A sigmoid-shaped curve (Log(inhibitor) vs. Response-Variable slope) was fitted to the data and the IC50 was calculated using GraphPad Prism software.\n(§5) This assay used a cocktail of drug-probe substrates that are specific to each isozyme with HLM and LC-MS detection[33][34]. Each test article and reference inhibitor was dissolved in 40% DMSO and 60% acetonitrile (ACN) mixture. […] Substrates were then added to their respective well containing the compound/HLM solution to start the reaction. […] The solution was centrifuged at 4 °C for 30 min at 3,700 rpm and the supernatant was transferred for LC-MS analysis. The concentrations of the metabolites were determined from standard curves using commercially available metabolite standards. Compounds were tested in triplicate. The half maximal inhibitory concentration (IC50) values were determined by plotting the metabolite formation over the logarithm of the compound concentration using Prism 5.0 software (GraphPad Software Inc., San Diego, CA)."}, "CYP2C8": {"molecular_target": "T2, CYP2C8 (Homo sapiens, UniProt P10632)", "T2 construct": "from tissue; host or cells: human liver microsomes", "T2 sequence (P10632 1-490)": "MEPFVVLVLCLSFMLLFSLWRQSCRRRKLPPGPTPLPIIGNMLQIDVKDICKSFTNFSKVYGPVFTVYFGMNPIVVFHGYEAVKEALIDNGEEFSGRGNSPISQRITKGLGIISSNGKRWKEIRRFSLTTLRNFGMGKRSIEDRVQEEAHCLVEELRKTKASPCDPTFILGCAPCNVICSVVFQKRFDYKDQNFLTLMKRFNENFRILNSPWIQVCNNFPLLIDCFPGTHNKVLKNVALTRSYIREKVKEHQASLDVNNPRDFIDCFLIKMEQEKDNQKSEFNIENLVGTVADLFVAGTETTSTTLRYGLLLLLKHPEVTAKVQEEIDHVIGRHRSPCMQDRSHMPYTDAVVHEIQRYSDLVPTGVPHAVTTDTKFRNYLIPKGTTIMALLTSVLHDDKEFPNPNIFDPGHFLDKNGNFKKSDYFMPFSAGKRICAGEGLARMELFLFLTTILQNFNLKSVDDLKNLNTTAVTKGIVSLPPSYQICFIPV", "assay": "HLM-LC-MS CYP450 inhibition assay, CYP2C8", "assay_type": "in vitro ADME", "experimental": "as §4, §5"}, "[2]": {"settings": "male, Sprague-Dawley, rat, in vivo"}}, "note": "Where two headings read alike, the source gives them in different places."}
{"smiles": "COc1ccc(-c2cc(C(O)C3CCCCN3)c3ccccc3n2)cc1", "note": "(stereo not shown) [NSC23925b, (2-(4-methoxyphenyl)-4-quinolinyl)(2-piperidinyl)methanol]", "values": [{"measurement": "Number of Death", "setting": "SD rats; I.P., 33.10 mg/kg, male", "value": 0}, {"measurement": "Number of Death", "setting": "SD rats; I.P., 47.20 mg/kg, female", "value": 1}, {"measurement": "Number of Death", "setting": "SD rats; I.V., 38.80 mg/kg, male", "value": 0}, {"measurement": "Number of Death", "setting": "SD rats; I.V., 47.20 mg/kg, female", "value": 1}, {"measurement": "MTD", "setting": "[1]; iv, female rats, I.V., one female rat moribund", "value": 47.2, "unit": "mg/kg"}, {"measurement": "MTD", "setting": "[1]; rat, ip, male rats, I.P., all in good status", "value": 33.1, "unit": "mg/kg"}, {"measurement": "MTD", "setting": "[1]; rat, iv, male rats, I.V.", "value": 38.8, "unit": "mg/kg"}, {"measurement": "CYP inhibitor class", "setting": "CYP2B6; bupropion", "value": "moderate (1–10 μM)"}, {"measurement": "IC50", "setting": "CYP2B6; substrate bupropion 70 μM, hydroxylation, read-out: Compound IC50", "value": 8.59, "unit": "µM"}, {"measurement": "IC50", "setting": "CYP2D6; Compound IC50, HLM, substrate bufuralol 10 μM", "value": 1.41, "unit": "µM"}, {"measurement": "CYP inhibitor class", "setting": "CYP2D6; HLM, bufuralol", "value": "moderate (1–10 μM)"}, {"measurement": "CYP inhibitor class", "setting": "CYP2C8", "value": "weak (IC50 values of >10 μM)"}, {"measurement": "IC50", "setting": "CYP2C8; substrate paclitaxel 10 μM, 6α-hydroxylation, read-out: Compound IC50", "value": "> 10", "unit": "µM"}, {"measurement": "AUMC0-inf", "setting": "[2]; ip, 5 mg/kg", "value": "38450 ± 36415", "unit": "h·h·ng·mL^−1"}, {"measurement": "AUMC0-t", "setting": "[2]; ip, 5 mg/kg", "value": "13328 ± 5611", "unit": "h·h·ng·mL^−1"}, {"measurement": "F", "setting": "[2]; ip, 5 mg/kg", "value": "110.6 ± 47.4", "unit": "%"}, {"measurement": "AUMC0-inf", "setting": "[2]; iv, 2.5 mg/kg", "value": "10502 ± 642", "unit": "h·h·ng·mL^−1"}, {"measurement": "AUMC0-t", "setting": "[2]; iv, 2.5 mg/kg", "value": "5504 ± 317", "unit": "h·h·ng·mL^−1"}, {"measurement": "MRTIV", "setting": "[2]; iv, 2.5 mg/kg", "value": "11.7 ± 0.512", "unit": "h"}]}
